Entries after “also recorded” stand apart in the source; their conditions may differ.
Legend:
Format in all cases: cell-based
2774 ovary cancer cells = test: MTT proliferation assay, 2774; conditions: 48 hours, ovarian cancer
Experimental: (§1) The effects of test compounds on proliferation of various cancer cells was examined by 3-(4,5-dimethylthiazol-2-yl)-2,5-diphenyltetrazolium bromide (MTT, Sigma) assay in a dose dependent manner. In the MTT assay, colon, liver, cervix, ovary, and breast cancer cell lines were treated with test compounds at various concentrations. Living cancer cells reduce MTT to dark blue MTT formazan that would be measured by absorbance.
(§2) Colon cancer cells, HCT116, DLD-1 and HT29, cervix cancer cells, HeLa and CaSki, ovary cancer cells, SKOV-3, 2774 and OVCAR-3, liver cancer cells, SK-Hep-1, PLCPRF5 and HepG2, and breast cancer cells, ZR75-1 and MDA-MB 231 were seeded at an initial density of 3000 cells per well in 96-well plates. After attachment of cells to the walls of the wells, the medium containing fresh retinoid was treated with various concentrations (0.5 μM, 1 μM, 2.5 μM, 5 μM, 10 μM) for 48 hours. 50 μl of MTT solution (2 mg/ml in PBS) was added to cell culture media. The reaction micture was incubated at 37° C. in a 5% CO2 atmosphere for 4 hours. The supernatant was removed and 150 μl of DMSO was added. The optical density was measured spectrophotometrically at 550 nm. […] For other retinoid derivatives according to the present invention, absorbances were measured by this procedure and IC50 values, concentrations required for 50% growth inhibition, were determined.

[1] = test system: PLCPRF5 liver cancer cells; test: MTT proliferation assay, PLCPRF5
Experimental: as §1, §2

HepG2 liver cancer cells = test: MTT proliferation assay, HepG2
Experimental: as §1, §2

[2] = test system: ZR75-1 breast cancer cells; test: MTT proliferation assay, ZR75-1
Experimental: as §1, §2

[3] = test system: HCT116 colon cancer cells; test: Trypan blue surviving cell count, HCT116; conditions: for relative surviving cells (%): trypan blue
Excerpt: (§3) Surviving cells, which had not be stained by trypan blue were counted and the results are shown in Table 3 as relative surviving cells (%).

DLD-1 colon cancer cells = test: Trypan blue surviving cell count, DLD-1
Excerpt: as §3

[4] = test system: MCF-7 breast cancer cells; test: DNA fragmentation assay (agarose gel), MCF-7; conditions: MCF-7, 2.5, 5.0, 10 μM, 48 hours
Experimental: After treated with each retinoid derivative at various concentrations (2.5, 5.0, 10 μM) for 48 hours, HCT116 or MCF-7 cells were poured in 1 mL of PBS and centrifuged at a rate of 13,000 rpm at 4° C. for 1 min. The resulting cell pellets were resuspended in 700 μl of lysis buffer (500 mM Tris, 100 mM EDTA, 0.5% SDS) containing 17.5 μl of proteinase K (20 mg/ml), and incubated on 55° C. water bath for 3 hours. The lysates were mixed with 700 μl of phenol solution while slowly stirring and centrifuged at 12,000 rpm for 5 min. The supernatants were separated and extracted with phenol once more. The supernatants were mixed with 600 μl of 100% ethanol and 60 μl of 3M NaOAc (pH 7.0) and left at −20° C. for 2 hours. The supernatants were removed by centrifugation at 12,000 rpm for 10 min to obtain pellets. After 70% ethanol washing and drying, DNA pellet was resuspended in 100 μl of TE (Tris-EDTA) buffer and treated with RNase A. The obtained samples were electrophoresed for 2 hours at 75 V on 1.8% agarose gels.

RXRβ = target: T1, RXRβ (Homo sapiens, UniProt P28702); test: CAT reporter assay, RXRβ; conditions: 1 μM, control = 1.0, RA = 9-cis RA; for expression level of CAT enzyme, RXRβ −: column '−'
T1 construct: expressed in transfected cells
T1 sequence (P28702 1-533): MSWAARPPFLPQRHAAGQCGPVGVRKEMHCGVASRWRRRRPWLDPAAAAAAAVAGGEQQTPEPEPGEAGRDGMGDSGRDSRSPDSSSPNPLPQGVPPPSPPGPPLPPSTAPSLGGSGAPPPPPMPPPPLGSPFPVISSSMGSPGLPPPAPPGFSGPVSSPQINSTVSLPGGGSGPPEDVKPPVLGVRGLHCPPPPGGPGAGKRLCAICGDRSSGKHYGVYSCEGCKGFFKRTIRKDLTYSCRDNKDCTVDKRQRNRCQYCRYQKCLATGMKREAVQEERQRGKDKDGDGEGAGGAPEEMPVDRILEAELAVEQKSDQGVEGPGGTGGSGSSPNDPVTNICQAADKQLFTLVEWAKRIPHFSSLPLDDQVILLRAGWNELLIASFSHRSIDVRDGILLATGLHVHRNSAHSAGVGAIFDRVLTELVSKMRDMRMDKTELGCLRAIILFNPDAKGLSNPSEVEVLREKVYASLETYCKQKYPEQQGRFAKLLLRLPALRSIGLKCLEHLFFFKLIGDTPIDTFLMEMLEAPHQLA
Excerpt: (§4) As the reporter gene, chloramphenicol acetyltransferase (CAT) with a transcription control site reactive to respective receptors was used.

RXRγ = target: T2, RXRγ (Homo sapiens, UniProt P48443); test: CAT reporter assay, RXRγ; conditions: 1 μM, control = 1.0, RA = 9-cis RA; for expression level of CAT enzyme, RXRγ −: column '−'
T2 construct: expressed in transfected cells
T2 sequence (P48443 1-463): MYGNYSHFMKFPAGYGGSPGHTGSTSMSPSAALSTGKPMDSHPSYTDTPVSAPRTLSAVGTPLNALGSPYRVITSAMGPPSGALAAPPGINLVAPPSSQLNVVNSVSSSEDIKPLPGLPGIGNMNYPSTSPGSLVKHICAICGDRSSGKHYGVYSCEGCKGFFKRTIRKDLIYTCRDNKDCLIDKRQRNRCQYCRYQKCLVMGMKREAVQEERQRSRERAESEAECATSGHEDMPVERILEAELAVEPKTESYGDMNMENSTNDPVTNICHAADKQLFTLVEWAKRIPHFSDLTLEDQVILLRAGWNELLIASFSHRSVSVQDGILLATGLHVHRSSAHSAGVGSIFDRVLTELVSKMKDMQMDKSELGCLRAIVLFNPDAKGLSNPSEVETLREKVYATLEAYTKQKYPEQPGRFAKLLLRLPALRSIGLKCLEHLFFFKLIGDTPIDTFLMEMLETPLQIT
Excerpt: as §4

Compound	IC50 (2774 ovary cancer cells)	IC50 ([1]; 48 hours)	IC50 (HepG2 liver cancer cells; 48 hours)	IC50 ([2]; 48 hours)	relative surviving cells (%) ([3]; HCT116, 0.5 μM)	relative surviving cells (%) ([3]; HCT116, 1 μM)	relative surviving cells (%) ([3]; HCT116, 5 μM)	relative surviving cells (%) ([3]; HCT116, 10 μM)	relative surviving cells (%) (DLD-1 colon cancer cells; DLD-1, 0.5 μM)	relative surviving cells (%) (DLD-1 colon cancer cells; DLD-1, 1 μM)	relative surviving cells (%) (DLD-1 colon cancer cells; DLD-1, 5 μM)	relative surviving cells (%) (DLD-1 colon cancer cells; DLD-1, 10 μM)	DNA ladder (DNA fragmentation) [4]	expression level of CAT enzyme, RXRβ + (RXRβ)	expression level of CAT enzyme, RXRβ − (RXRβ)	expression level of CAT enzyme, RXRγ + (RXRγ)	expression level of CAT enzyme, RXRγ − (RXRγ)	further results
CC1=C(/C=C/C(C)=C/C=C/C(C)=C/C(=O)O)C(C)(C)CCC1 [ATRA, All-trans-retinoic acid, reference compound]	> 100 µM																	IC50 ([1]; Homo sapiens, PLC-PRF-5, 48 hours): > 500 µM; IC50 (HepG2 liver cancer cells; Homo sapiens, HepG2, 48 hours): > 500 µM; IC50 ([2]; Homo sapiens, ZR-75-1, 48 hours): > 500 µM; inhibition at 10 µM ([3]; Homo sapiens, HCT-116, HCT116, 10 μM, read-out: inhibition of proliferation): 10 to 30%
CC1=C(/C=C/C(C)=C/C=C/C(C)=C/C(=O)Nc2ccc(O)cc2)C(C)(C)CCC1 [HPR, (2E,4E,6E,8E)-[3,7-dimethyl-9-(2,6,6-trimethylcyclohex-1-enyl)-nona-2,4,6,8-tetraenoylamino]-4-hydroxyphenylamide]	30 µM	20 µM	> 100 µM	15 µM	91%	70%	45%	13%	94%	85%	63%	28%	did not show any DNA ladder	1.4	0.6	1.5	1.3	
CCCC(=O)Oc1cc(O)ccc1NC(=O)/C=C(C)/C=C/C=C(C)/C=C/C1=C(C)CCCC1(C)C [KCBG10, 2.2-[(2E,4E,6E,8E)-3,7-Dimethyl-9-(2,6,6-trimethylcyclohex-1-enyl)-nona-2,4,6,8-tetraenoylamino]-5-hydroxyphenylbutanoate]	8 µM	12 µM	> 100 µM	2 µM									DNA band of the ladder shape caused by DNA fragmentation was well detected; also recorded: at a low concentration showed DNA fragmentation					
CCCC(=O)Nc1cc(NC(=O)/C=C(C)/C=C/C=C(C)/C=C/C2=C(C)CCCC2(C)C)ccc1O [KCBG41, (2E,4E,6E,8E)-[3,7-dimethyl-9-(2,6,6-trimethylcyclohex-1-enyl)-nona-2,4,6,8-tetraenoylamino]-(3-butyrylamino-4-hydroxy)phenylamide]	2.5 µM		> 100 µM	4.1 µM									DNA band of the ladder shape caused by DNA fragmentation was well detected					
CCCC(=O)Oc1ccc(NC(=O)/C=C(C)/C=C/C=C(C)/C=C/C2=C(C)CCCC2(C)C)cc1 [KCBG60]					90%	75%	45%	10%	95%	85%	60%	30%		1.1	0.5	1.4	1.2	concentration at which inhibition of proliferation began ([3]; HCT116): 0.5 µM; inhibition of proliferation ([3]; HCT116, 10 μM): more than 90%
phenyl butylate					103%	103%	95%	90%	105%	103%	102%	92%		1.1	0.5	1.2	1.1	

— patent publication US7166744B2, “Retinoid derivatives and methods for producing said compounds and anti-cancer pharmaceutical composition comprising said compounds” (Chebigen Co., Ltd., priority 2001, dated 2007)
